According to article PMC6799938, “Determinants of drug entry into the developing brain” (F1000Research, 2019):
Like-named read-outs stand apart in the source and are kept apart here.

Experiments:
[1] = Placental transfer at E19 (fetal/maternal plasma concentration ratio); settings: E19, passive permeability markers, acute; for Fetal/Maternal plasma concentration ratio: mean ± SD
[2] = Entry of "passive" markers into brain and CSF; settings: passive marker, all ages (E19, P4, adults), 30 minutes
Method: (§1) Experimental procedure. In acute drug experiments, a single dose was injected that included traces of [ ^3H]-labelled drug (20µCi adults, 2µCi newborns). In chronic experiments, doses of unlabelled drug were given twice daily (09.00 and 17.00h) for four days before a final injection on the 5 ^th day identical to acute experiments. In passive marker experiments, all dosing was acute and contained only the [ ^3H]- or [ ^14C]-labelled compound (20µCi adults, 2µCi newborns).
(§2) In all experiments involving postnatal animals, injections were intraperitoneal (i.p.). In pregnant animals for fetal drug entry studies, the final injection of the radiolabelled marker was given intravenously (i.v.), as the peritoneal cavity required opening prior to the sampling period to gain access to the fetuses. For passive markers (L-glucose, sucrose and glycerol), fetal animals were individually injected i.p. while still within the uterine horn. All experiments took place between 09.00 and 15.00h. All pregnancy studies were completed with a single treatment group on one day. Postnatal groups were conducted with a single treatment group on one day or with the chronic group completed prior to the acute group.
(§3) Sample collection. Samples were collected 30 minutes after the final injection. This duration was chosen partly to limit any potential metabolism of the drugs and markers used but also to allow enough time for i.p. injected markers to reach the blood stream and, from there, to access the brain parenchyma across brain barriers, as well as to limit the CSF sink effect that could influence drug levels ( [Bito et al., 1966]). Thirty minutes is also within the half-life of these drugs ( [Adedoyin et al., 1987]; [Harrison & Gibaldi, 1976]; Lin & Levy, 1963). The other reason a 30-minute duration was chosen is that in the case of exposed fetal rat pups, it is difficult to maintain them in a reasonable physiological state for long periods due to deterioration of placental perfusion. Therefore, for comparative purposes, all studies were conducted at the same time.
For adult and newborn (P4) experiments, animals were terminally anaesthetized using inhaled isofluorane (IsoFlo 100% w/w, Abbott Laboratories). Blood samples were collected from the right cardiac ventricle, CSF from the cisterna magna (Habgood et al., 1992) and cortical segments of brain tissue dorsal to the ventricle of the frontal/parietal lobes, as previously described ( [Koehn et al., 2019]). Blood and CSF sampling from the P4 animals was terminal and would thus not have affected the physiological state of the animals during the experiment.
Sample preparation. Samples were processed immediately after collection. Blood was centrifuged at 7000rpm for five minutes and the plasma separated. CSF samples were examined microscopically for traces of red blood cells and discarded if contaminated (Habgood et al., 1992). In all experiments, the radioactivity in the injectate was also measured to confirm the uniformity of the injected material. All samples were weighed and transferred into scintillation vials. Soluene350 (0.5ml, PerkinElmer) was added to the brain samples. After being incubated at 36°C overnight to allow the tissue to solubilize, two drops of glacial acetic acid (Sigma) were added to neutralize the strongly alkaline Soluene350. All samples were then mixed with 5ml of scintillation fluid (Emulsifier-safe, PerkinElmer) before being transferred into the liquid scintillation counter (Tri-Carb 4910 TR, PerkinElmer) to count radioactivity disintegrations per minute (DPM) over five minutes each with luminescence correction on. Blank vials containing the same tissues without radioactivity were also counted alongside the samples to establish the level of background counts, which were always subtracted from the radioactivity counts of the corresponding experimental samples.
BrainorCSFtransfer=BrainorCSFDPM/μl/plasmaDPM/μl×100%

[3] = test system: abcc4 (MRP4)
[4] = Sprague Dawley, rat, in vivo
[5] = test system: abcg2 (BCRP)
[6] = test system: abcb1b (PGP)
[7] = test system: abcc3 (MRP3)
[8] = test system: abcc2 (MRP2)
[9] = test system: abcc1 (MRP1)
[10] = test system: abcb1a (PGP)
[11] = test system: abcc5 (MRP5)
[12] = for Brain radioactivity level / CSF radioactivity level / Plasma radioactivity level: mean; for Brain/Plasma Ratio / CSF/Plasma Ratio: mean ± SD
Method: Animals. Sprague Dawley rats were supplied by the University of Melbourne Biological Research Facility and housed in groups of 2–4 (adult) or full litters per cage (25cm x 35cm x 25cm on Breeders Choice paper bedding, made from 99% recycled paper; it is biodegradable with no added chemicals), on a 12 h light/dark cycle with ad libitum access to food (dry pellets of a fixed formulation diet for laboratory rats and mice fortified with vitamins and minerals to meet the requirements of breeding animals after the diet is autoclaved or irradiated, supplied by Speciality Feeds, Western Australia) and water. Age groups investigated (at treatment completion) were time mated pregnant females at E19 (350-400g body weight), postnatal pups at P4 and non-pregnant female adults (175-230g body weight). E19 was chosen because this is a stage of development when adequate volumes of blood and CSF can be obtained for analysis from fetal rats without pooling ( [Dziegielewska et al., 1981]) and individual pups can be injected intraperitoneally while still inside the uterine horn and kept viable for periods of time. P4 was chosen because its stage of brain development is similar to that of very prematurely born but viable human infants of 22–24 weeks gestation ( [Clancy et al., 2001]). Animal numbers were based on previous experience of such experiments and were the minimum number required to detect a significant difference between groups at P <0.05.
Drug doses. Drug doses were selected based on use in clinical practice ( [Australian Medicines Handbook, 2019]) and adjusted for body weight.
as §1, §2, §3
For adult and newborn (P4) experiments, animals were terminally anaesthetized using inhaled isofluorane (IsoFlo 100% w/w, Abbott Laboratories).

[13] = choroid plexus (lateral ventricular), E19
[14] = choroid plexus (lateral ventricular), P4
[15] = choroid plexus (lateral ventricular), adult
[16] = E19 fetuses, acute, 30 min - […] after administration
[17] = E19 fetuses, acute, listed as cimetidine
[18] = E19 fetuses, chronic (twice daily over five days), 30 min - […] after final dose
[19] = P4, acute, 30 min, listed as cimetidine
[20] = P4, chronic i.p. (twice daily over five days), 30 min after final dose
[21] = adult, acute, 30 min, listed as cimetidine
[22] = adult, chronic i.p. (twice daily over five days), 30 min after final dose

O=C[C@@H](O)[C@H](O)[C@@H](O)[C@@H](O)CO [L-Glucose, L-glucose]
Fetal/Maternal plasma concentration ratio, range [1]: (8.3 - 27.7) %
Fetal/Maternal plasma concentration ratio [1]: 16.7 ± 6.5%
Fetal/Maternal plasma concentration ratio ([1]; listed as L-glucose): 16.7%
Brain/Plasma Ratio [2]: very low
CSF/Plasma Ratio [2]: very low

CN/C(=N/CCSCc1nc[nH]c1C)NC#N [Cimetidine]
abcc4 expression, fold change chronic vs acute ([3]; brain cortex, E19): 0.98 fold
abcc4 expression, fold change chronic vs acute ([3]; brain cortex, P4): 1.18 fold
abcc4 expression, fold change chronic vs acute ([3]; brain cortex, adult): 1.00 fold
abcc4 expression, fold change chronic vs acute [3, 13]: 1.17 fold
abcc4 expression, fold change chronic vs acute [3, 14]: 1.12 fold
abcc4 expression, fold change chronic vs acute [3, 15]: ↑ 1.49 fold
abcc4 expression, fold change chronic vs acute ([3]; placenta, E19): 0.69 fold
restriction of transfer by the placenta [4]: ~70%
abcg2 expression, fold change chronic vs acute ([5]; brain cortex, E19): 0.80 fold
abcg2 expression, fold change chronic vs acute ([5]; brain cortex, P4): 1.11 fold
abcg2 expression, fold change chronic vs acute ([5]; brain cortex, adult): 0.98 fold
abcg2 expression, fold change chronic vs acute [5, 13]: 1.01 fold
abcg2 expression, fold change chronic vs acute [5, 14]: 0.73 fold
abcg2 expression, fold change chronic vs acute [5, 15]: 0.91 fold
abcg2 expression, fold change chronic vs acute ([5]; placenta, E19): 1.24 fold
abcb1b expression, fold change chronic vs acute ([6]; brain cortex, E19): 1.09 fold
abcb1b expression, fold change chronic vs acute ([6]; brain cortex, P4): 1.03 fold
abcb1b expression, fold change chronic vs acute ([6]; brain cortex, adult): 0.87 fold
abcb1b expression, fold change chronic vs acute [6, 13]: 1.66 fold
abcb1b expression, fold change chronic vs acute [6, 14]: 1.00 fold
abcb1b expression, fold change chronic vs acute [6, 15]: 1.15 fold
abcb1b expression, fold change chronic vs acute ([6]; placenta, E19): 1.00 fold
abcc3 expression, fold change chronic vs acute ([7]; brain cortex, E19): 0.81 fold
abcc3 expression, fold change chronic vs acute ([7]; brain cortex, P4): 1.12 fold
abcc3 expression, fold change chronic vs acute ([7]; brain cortex, adult): 1.18 fold
abcc3 expression, fold change chronic vs acute [7, 13]: 1.46 fold
abcc3 expression, fold change chronic vs acute [7, 14]: 1.05 fold
abcc3 expression, fold change chronic vs acute [7, 15]: 1.12 fold
abcc3 expression, fold change chronic vs acute ([7]; placenta, E19): 0.96 fold
abcc2 expression, fold change chronic vs acute ([8]; brain cortex, E19): 0.96 fold
abcc2 expression, fold change chronic vs acute ([8]; brain cortex, P4): ↓ 0.92 fold
abcc2 expression, fold change chronic vs acute ([8]; brain cortex, adult): 1.00 fold
abcc2 expression, fold change chronic vs acute [8, 13]: 1.19 fold
abcc2 expression, fold change chronic vs acute [8, 14]: 1.04 fold
abcc2 expression, fold change chronic vs acute [8, 15]: 0.86 fold
abcc2 expression, fold change chronic vs acute ([8]; placenta, E19): *10.07 fold
abcc1 expression, fold change chronic vs acute ([9]; brain cortex, E19): 1.00 fold
abcc1 expression, fold change chronic vs acute ([9]; brain cortex, P4): 1.11 fold
abcc1 expression, fold change chronic vs acute ([9]; brain cortex, adult): 1.20 fold
abcc1 expression, fold change chronic vs acute [9, 13]: 1.28 fold
abcc1 expression, fold change chronic vs acute [9, 14]: 0.96 fold
abcc1 expression, fold change chronic vs acute [9, 15]: 1.06 fold
abcb1a expression, fold change chronic vs acute ([10]; brain cortex, E19): 0.93 fold
abcb1a expression, fold change chronic vs acute ([10]; brain cortex, P4): ↑ 1.23 fold
abcb1a expression, fold change chronic vs acute ([10]; brain cortex, adult): 1.06 fold
abcb1a expression, fold change chronic vs acute [10, 13]: 1.73 fold
abcb1a expression, fold change chronic vs acute [10, 14]: 1.72 fold
abcb1a expression, fold change chronic vs acute [10, 15]: 1.06 fold
abcb1a expression, fold change chronic vs acute ([10]; placenta, E19): 0.86 fold
abcc5 expression, fold change chronic vs acute ([11]; brain cortex, E19): 0.97 fold
abcc5 expression, fold change chronic vs acute ([11]; brain cortex, P4): ↑ 1.24 fold
abcc5 expression, fold change chronic vs acute ([11]; brain cortex, P4, listed as cimetidine): 1.24 fold
abcc5 expression, fold change chronic vs acute ([11]; brain cortex, adult): 1.11 fold
abcc5 expression, fold change chronic vs acute [11, 13]: 1.19 fold
abcc5 expression, fold change chronic vs acute [11, 14]: 0.86 fold
abcc5 expression, fold change chronic vs acute [11, 15]: 1.21 fold
abcc5 expression, fold change chronic vs acute ([11]; placenta, E19): 1.14 fold
transfer from maternal blood to fetal brain ([12]; E19, acute): 17%
Brain radioactivity level [12, 16]: 7.3 DPM/µg
CSF radioactivity level [12, 16]: 7.0 DPM/µl
Plasma radioactivity level [12, 16]: 13.0 DPM/µl
Brain/Plasma Ratio ([12]; E19 fetuses, acute): 56 ± 10%
CSF/Plasma Ratio ([12]; E19 fetuses, acute): 54 ± 11%
Brain/Plasma Ratio [12, 17]: 56%
CSF/Plasma Ratio [12, 17]: 54%
Brain radioactivity level [12, 18]: 8.8 DPM/µg
CSF radioactivity level [12, 18]: 8.4 DPM/µl
Plasma radioactivity level [12, 18]: 13.3 DPM/µl
Brain/Plasma Ratio ([12]; E19 fetuses, chronic): 65 ± 19%
CSF/Plasma Ratio ([12]; E19 fetuses, chronic): 63 ± 15%
Brain radioactivity level ([12]; P4, acute i.p., 30 min): 37.2 DPM/µg
CSF radioactivity level ([12]; P4, acute i.p., 30 min): 24.3 DPM/µl
Plasma radioactivity level ([12]; P4, acute i.p., 30 min): 310.9 DPM/µl
Brain/Plasma Ratio ([12]; P4, acute, 30 min): 12 ± 1%
CSF/Plasma Ratio ([12]; P4, acute, 30 min): 8 ± 1%
Brain/Plasma Ratio [12, 19]: 12%
CSF/Plasma Ratio [12, 19]: 8%
Brain radioactivity level [12, 20]: 45.7 DPM/µg
CSF radioactivity level [12, 20]: 27.8 DPM/µl
Plasma radioactivity level [12, 20]: 373.2 DPM/µl
Brain/Plasma Ratio ([12]; P4, chronic, 30 min): 12 ± 2%
CSF/Plasma Ratio ([12]; P4, chronic, 30 min): 7 ± 1%
transfer into maternal brain (brain/maternal blood) ([12]; acute): 13%
Brain radioactivity level ([12]; adult, acute i.p., 30 min): 6.2 DPM/µg
CSF radioactivity level ([12]; adult, acute i.p., 30 min): 6.0 DPM/µl
Plasma radioactivity level ([12]; adult, acute i.p., 30 min): 55.9 DPM/µl
Brain/Plasma Ratio ([12]; adult, acute, 30 min): 13 ± 5%
CSF/Plasma Ratio ([12]; adult, acute, 30 min): 12 ± 3%
Brain/Plasma Ratio [12, 21]: 13%
CSF/Plasma Ratio [12, 21]: 12%
Brain radioactivity level [12, 22]: 11.6 DPM/µg
CSF radioactivity level [12, 22]: 11.1 DPM/µl
Plasma radioactivity level [12, 22]: 90.7 DPM/µl
Brain/Plasma Ratio ([12]; adult, chronic, 30 min): 13 ± 1%
CSF/Plasma Ratio ([12]; adult, chronic, 30 min): 12 ± 1%
